The source of these data is ChEMBL document CHEMBL1137946, “Synthesis and biological evaluation of (-)-laulimalide analogues” (Bioorg Med Chem Lett, 2004).

Assay [1] has as its system HT-29. As to the kind of experiment: In vitro growth inhibitory activity against HT-29 human colon cancer cell line. The class given is functional, cell-based.
The subject of assay [2] is MDA-MB-435. As to the kind of experiment: In vitro growth inhibitory activity against MDA-MB-435 human breast cancer cell line. The class given is functional, cell-based.

The structures appear in SMILES notation.

With `C=C1C[C@H](C)C[C@@H]2CC=C[C@@H](C/C=C/C(=O)O[C@H]([C@@H](O)/C=C/[C@@H]3CC(C)=CCO3)C/C=C/[C@@H](O)C1)O2`, the values for the IC50 in assay [1] and in assay [2] were 8500 nM and 2760 nM, respectively.
For `C=C1C[C@H](C)C[C@@H]2CC=C[C@@H](CCCC(=O)O[C@H]([C@H](/C=C/[C@@H]3CC(C)=CCO3)OC)C[C@@H]3O[C@H]3[C@@H](O)C1)O2` the same measures were greater than 1000 nM and greater than 1000 nM.
For the molecule `C=C1C[C@H](C)C[C@@H]2CC=C[C@@H](C/C=C\C(=O)O[C@H]([C@@H](O)/C=C/[C@@H]3CC(C)=CCO3)C[C@@H]3O[C@H]3[C@@H](OC(C)=O)C1)O2`, the IC50 in assay [2] is 23 nM. That is a double-digit nanomolar value.
The same measure, in the same setting: for `C=C1C[C@H](C)C[C@@H]2CC=C[C@@H](C/C=C\C(=O)O[C@H]([C@H](/C=C/[C@@H]3CC(C)=CCO3)OC(C)=O)C[C@@H]3O[C@H]3[C@@H](O)C1)O2` the value was 91 nM.
With `C=C1C[C@H](C)C[C@@H]2CC=C[C@@H](C/C=C\C(=O)O[C@H]([C@@H](O)/C=C/[C@@H]3CC(C)=CCO3)C/C=C/[C@@H](O)C1)O2`, the IC50 in assay [1] was found to be 960 nM; in assay [2], 289 nM.
On to `C=C1C[C@H](C)C[C@@H]2CC=C[C@@H](C/C=C\C(=O)O[C@H]([C@@H](O)/C=C/[C@@H]3CC(C)=CCO3)C[C@@H]3O[C@H]3[C@@H](OC)C1)O2`, for which the IC50 in assay [2] was greater than 1000 nM.
Consider `C=C1C[C@H](C)C[C@@H]2CC=C[C@@H](C/C=C\C(=O)O[C@H]([C@@H](O)/C=C/[C@@H]3CC(C)=CCO3)C[C@H]3O[C@@H]3[C@H](OC(=O)c3ccc([N+](=O)[O-])cc3)C1)O2`, for which the IC50 in assay [2] is greater than 1000 nM.
The same measure, in the same setting: for `C=C1C[C@H](C)C[C@@H]2CC=C[C@@H](C/C=C\C(=O)O[C@H]([C@H](/C=C/[C@@H]3CC(C)=CCO3)O[Si](C)(C)C(C)(C)C)C[C@@H]3O[C@H]3[C@@H](O)C1)O2` the value was greater than 1000 nM.
Turning to `C=C1C[C@H](C)C[C@@H]2CC=C[C@@H](C/C=C\C(=O)O[C@H]([C@@H](O)/C=C/[C@@H]3CC(C)=CCO3)C/C=C/[C@H](O)C1)O2`, the IC50 in assay [1] is 2700 nM; in assay [2] it was 790 nM.
With `C=C1C[C@H](C)C[C@@H]2CC=C[C@@H](C/C=C\C(=O)O[C@H]([C@H](/C=C/[C@@H]3CC(C)=CCO3)OC(C)=O)C[C@@H]3O[C@H]3[C@@H](OC(C)=O)C1)O2`, half-maximal inhibition in assay [2] (IC50) was put at 289 nM.
Still for that read-out and setting: for `C=C1CC(=N\OC)/C=C/C[C@@H]([C@@H](O)/C=C/[C@@H]2CC(C)=CCO2)OC(=O)/C=C\C[C@@H]2C=CC[C@@H](C[C@@H](C)C1)O2` the value was greater than 1000 nM; for `C=C1C[C@H](C)C[C@@H]2CC=C[C@@H](C/C=C\C(=O)O[C@H]([C@@H](O)/C=C/[C@@H]3CC(C)=CCO3)C[C@@H]3O[C@H]3[C@H](OC(=O)OC)C1)O2`, 422 nM.
For `C=C1C[C@H](C)C[C@@H]2CC=C[C@@H](CC#CC(=O)O[C@H]([C@H](/C=C/[C@@H]3CC(C)=CCO3)OC)C[C@@H]3O[C@H]3[C@@H](O)C1)O2`, the IC50 in assay [1] and in assay [2] was greater than 1000 nM in each case.
The molecule `C=C1C[C@H](C)C[C@@H]2CC=C[C@@H](C/C=C\C(=O)O[C@H]([C@@H](O)/C=C/[C@@H]3CC(C)=CCO3)C[C@@H]3O[C@H]3[C@H](OC(=O)c3ccc([N+](=O)[O-])cc3)C1)O2` showed an IC50 in assay [2] of 37 nM.
On the same count and under the same terms, for `C=C1C[C@H](C)C[C@@H]2CC=C[C@@H](C/C=C\C(=O)O[C@H]([C@@H](O)/C=C/[C@@H]3CC(C)=CCO3)C[C@@H]3O[C@H]3[C@H](OC(=O)N(C)C)C1)O2` the value was 601 nM.
Same read-out and setting: for `C=C1C[C@H](C)C[C@@H]2CC=C[C@@H](C/C=C\C(=O)O[C@H]([C@@H](O)/C=C/[C@@H]3CC(C)=CCO3)C[C@H]3O[C@@H]3[C@H](O)C1)O2` the value was 176 nM.
Still for that read-out and setting: the result for `C=C1CC(=O)/C=C/C[C@@H]([C@@H](O)/C=C/[C@@H]2CC(C)=CCO2)OC(=O)/C=C\C[C@@H]2C=CC[C@@H](C[C@@H](C)C1)O2` reads greater than 1000 nM.
Consider `C=C1C[C@H](C)C[C@@H]2CC=C[C@@H](C/C=C\C(=O)O[C@H]([C@H](/C=C/[C@@H]3CC(C)=CCO3)OC)C[C@@H]3O[C@H]3[C@@H](O)C1)O2`, for which the IC50 in assay [1] was 590 nM; in assay [2] it was 242 nM.
For `C=C1C[C@H](C)C[C@@H]2CC=C[C@@H](C/C=C/C(=O)O[C@H]([C@@H](O)/C=C/[C@@H]3CC(C)=CCO3)C/C=C/[C@H](O)C1)O2` the same measures were 9600 nM and 4300 nM.
For `C=C1C[C@H](C)C[C@@H]2CC=C[C@@H](C/C=C\C(=O)O[C@H]([C@@H](O)/C=C/[C@@H]3CC(C)=CCO3)C[C@@H]3O[C@H]3[C@@H](O)C1)O2` [FIJIANOLIDE B] the same measures were 6.9 nM and 2.3 nM.

The IC50 is the concentration needed to halve the response being measured. Low values mean higher potency, high ones lower potency.
